In brackets after ≈: the same amount, converted by molar mass. Like-named read-outs stand apart in the source and are kept apart here.
Tests used:
Format in all cases: cell-based, Staphylococcus aureus
MRSA USA300 = experiment: Antibacterial activity assay (MIC by broth microdilution, MBC by subculture)
Experimental: The antimicrobial activity was based on MIC and MBC; MIC is the minimum inhibitory concentration and MBC is the minimum bactericidal concentration. The MIC of individual test agents against MRSA USA300 strains was determined using the broth microdilution method according to CLSI guidelines. Briefly, overnight bacterial cultures in LB medium were diluted 1:50 in fresh LB medium and incubated at 37° C. until reaching an OD600 of 0.5 to 0.6. Bacterial suspensions were diluted to a final concentration of 5×10^5 cfu/mL in fresh CAMHB and then exposed to each test agent at increasing doses in triplicate in 96-well plates for 24 hours at 37° C. The MIC of each agent was defined as the lowest concentration without visible bacterial growth. […] The lowest broth dilution that had no viable bacteria was considered the MBC.
Then, the combination effect was measured by calculating their corresponding fractional inhibitory concentration index (FICI) with the equation ΣFIC (FICi)=FICA+FICB=(CombA/MICA)+(CombB/MICB), where MICA and MICB are the MICs of drugs A and B alone, respectively, and CombA and CombB are the concentrations of drugs A and B in combination, respectively. […] was defined as an FICI≤0.5, no interaction was defined as an FICI>0.5-4.0, and antagonism was defined as an FICI>4.

MRSA ATCC33591 = experiment: Antibacterial activity assay (MIC, broth microdilution); details: for MIC: Staphylococcus aureus
MRSA ATCC33592 = experiment: as above; details: for MIC: Staphylococcus aureus
MRSA ATCC49476 = experiment: as above; details: for MIC: Staphylococcus aureus
S. aureus DAP-NS = experiment: as above; details: for MIC: Staphylococcus aureus
[1] = system: MRSA USA300 persister cells; experiment: Persister killing assay; details: SC5005 16×MIC, 4 mg/L; FIG. 1
Experimental: (§1) The number of viable bacteria in broth after each exposure period was enumerated by a cfu assay and expressed as cfu/mL; the data shown are the mean±SD (standard deviation) of independent experiments. […] The number of viable bacteria in the broth after each exposure period was calculated by a cfu assay (cfu/mL); the data are shown as the mean±SD of three independent experiments (n=3 for each group). Since the standard deviation of each point is very small, the error line is not shown in each graph. The horizontal dashed line in the upper left graph and the upper right graph represents […] of the bacterial cells killed. In addition, the blank controls in FIG. 1 are shown as filled diamonds.
(§2) Bacteria were collected by centrifugation at 4000×g for 10 min at 4° C., washed with ice-cold PBS, and suspended in PBS with test agents. Controls received DMSO and ethanol vehicles at concentrations equal to those for drug-treated bacteria. At the designated times, the number of viable bacteria was assessed by serial dilution of a 100 μL aliquot bacterial suspension in PBS and then spread onto LB agar plates. After incubation at 37° C. for 18-24 hours, the number of colonies was counted and expressed as cfu/mL.

[2] = system: S. aureus NCTC8325 persister cells; experiment: Persister killing assay; details: SC5005 16×MIC, 4 mg/L; FIG. 1
Experimental: as §1, §2

MIC (MRSA USA300; +8 mg/L DHA): 0.0038 ng/mL | MIC (MRSA USA300; +8 mg/L DHA, MRSA USA300 (Table 4)): 0.015 ng/mL | MIC (MRSA USA300; Staphylococcus aureus, MRSA / SC5005 / USA300, fatty acid 0 mg/L (SC5005 alone), read-out: MIC SC5005): 250 ng/mL | MIC (MRSA USA300; Staphylococcus aureus, amide compound alone, read-out: MIC): 250 ng/mL | MIC (MRSA USA300; agent alone, MRSA USA300 (Table 4)): 250 ng/mL | MIC (MRSA ATCC33591; +8 mg/L DHA): 0.061 ng/mL (≈ 0.117 nM) | MIC (MRSA ATCC33591; agent alone): 250 ng/mL (≈ 479 nM) | MIC (MRSA ATCC33592; +8 mg/L DHA): 0.49 ng/mL (≈ 0.939 nM) | MIC (MRSA ATCC33592; agent alone): 250 ng/mL (≈ 479 nM) | MIC (MRSA ATCC49476; +8 mg/L DHA): 0.00095 ng/mL (≈ 0.00182 nM) | MIC (MRSA ATCC49476; agent alone): 250 ng/mL (≈ 479 nM) | MIC (S. aureus DAP-NS; +8 mg/L DHA): 0.0019 ng/mL (≈ 0.00364 nM) | MIC (S. aureus DAP-NS; agent alone): 250 ng/mL (≈ 479 nM)
SMILES: O=C(Nc1ccc(Cl)c(C(F)(F)F)c1)C(CCCl)C(=O)Nc1ccc(Cl)c(C(F)(F)F)c1 [SC5005]
MBC (MRSA USA300; +8 mg/L DHA): 7.8 ng/mL | combination effect (MRSA USA300; MIC, +8 mg/L DHA, MRSA USA300 (Table 4)): (Syn) (Synergy (Syn) was defined as an FICI≤0.5) | MBC (MRSA USA300; Staphylococcus aureus, MRSA / SC5005 / USA300, fatty acid 0 mg/L (SC5005 alone), read-out: MBC SC5005): 2000 ng/mL | MBC (MRSA USA300; Staphylococcus aureus, amide compound alone, read-out: MBC): 2000 ng/mL | combination effect (MRSA ATCC33591; MIC, +8 mg/L DHA): (Syn) (Synergy (Syn) was defined as an FICI≤0.5) | combination effect (MRSA ATCC33592; MIC, +8 mg/L DHA): (Syn) (Synergy (Syn) was defined as an FICI≤0.5) | combination effect (MRSA ATCC49476; MIC, +8 mg/L DHA): (Syn) (Synergy (Syn) was defined as an FICI≤0.5) | combination effect (S. aureus DAP-NS; MIC, +8 mg/L DHA): (Syn) (Synergy (Syn) was defined as an FICI≤0.5) | time to eradication of persister cells [1]: ≤ 24 h | time to eradication of persister cells [2]: ≤ 24 h
